test system: not given; assay: not given; conditions: not given

Compared with COc1ccc2[nH]c(C)c(CC(=O)Nc3ccc(CC(=O)NCCN(C)C)cc3)c2c1 [Example 188, N-[4-[2-[[2-(Dimethylamino)ethyl]amino]-2-oxoethyl]phenyl]-2-(5-methoxy-2-methyl-1H-indol-3-yl)acetamide], CN(C)CCNC(=O)Cc1ccc(NC(=O)CCCc2c[nH]c3ccccc23)cc1 [Example 189, N-[4-[2-[[2-(Dimethylamino)ethyl]amino]-2-oxoethyl]phenyl]-4-(1H-indol-3-yl)butanamide] is higher in melting point: 125 to 126 °C for the first, 132 to 133 °C for the second.

First: CN(C)CCNC(=O)Cc1ccc(NC(=O)c2ccc(OCc3ccc(-c4ccccc4)cc3)cc2)cc1 [Example 191, 4-([1,1′-Biphenyl]-4-ylmethoxy)-N-[4-[2-[[2-(dimethylamino)ethyl]amino]-2-oxoethyl]phenyl]benzamide]
Second: CN(C)CCNC(=O)Cc1ccc(NC(=O)c2ccc(NC(=O)c3ccccc3)cc2)cc1 [Example 192, 4-(Benzoylamino)-N-[4-[2-[[2-(dimethylamino)ethyl]amino]-2-oxoethyl]phenyl]benzamide]
The melting point of the first is lower: 204 to 208 °C for the first, 220 to 221 °C for the second.

First: COc1ccc(-c2ccc(C(=O)Nc3ccc4c(c3)CCC(CN3CCCC3)=C4C)cc2)cc1 [Example 200, 4′-Methoxy-N-[6-(1-pyrrolidinylmethyl)-5-methyl-7,8-dihydro-2-naphthalenyl][1,1′-biphenyl]-4-carboxamide]
Second: CC1=C(CN2CCCC2)CCc2cc(NC(=O)c3ccc(-c4ccc(F)cc4)cc3)ccc21 [Example 229, 4′-Fluoro-N-[5-methyl-6-(1-pyrrolidinylmethyl)-7,8-dihydro-2-naphthalenyl][1,1′-biphenyl]-4-carboxamide]
The melting point of the first is lower: 179 to 180 °C for the first, 199 to 201 °C for the second.

First: CN(C)CC1CCc2cc(NC(=O)N3CCC(c4ccc(F)cc4)CC3)ccc2C1O (stereo not shown) [Example 203, N-[6-[(Dimethylamino)methyl]-5-hydroxy-5,6,7,8-tetrahydro-2-naphthalenyl]-4-(4-fluorophenyl)-1-piperidinecarboxamide]
Second: CC1=C(CN2CCCC2)CCc2cc(NC(=O)N3CCC(c4ccc(C)cc4)CC3)ccc21 [Example 238, 4-(4-Methylphenyl)-N-[5-methyl-6-(1-pyrrolidinylmethyl)-7,8-dihydro-2-naphthalenyl]-1-piperidinecarboxamide]
The melting point of the first is higher: 160 to 163 °C for the first, 159 to 160 °C for the second.

First: O=C(Nc1ccc2c(c1)CCC(CCN1CCCC1)=C2)c1ccc(-c2ccccc2)cc1 [Example 204, N-[6-[2-(1-Pyrrolidinyl)ethyl]-7,8-dihydro-2-naphthalenyl][1,1′-biphenyl]-4-carboxamide]
Second: O=C(Nc1ccc2c(c1)CCC(CCN1CCCC1)=C2)c1ccc(-c2ccc(F)cc2)cc1 [Example 205, 4′-Fluoro-N-[6-[2-(1-pyrrolidinyl)ethyl]-7,8-dihydro-2-naphthalenyl][1,1′-biphenyl]-4-carboxamide]
The melting point of the first is lower: 184 to 186 °C for the first, 187 to 189 °C for the second.

First: O=C(Nc1ccc2c(c1)CCC(CCN1CCCC1)=C2)c1ccc(-c2ccc(Cl)cc2)cc1 [Example 206, 4′-Chloro-N-[6-[2-(1-pyrrolidinyl)ethyl]-7,8-dihydro-2-naphthalenyl][1,1′-biphenyl]-4-carboxamide]
Second: CN(C)CC1=Cc2ccc(NC(=O)c3ccc(-c4ccc(Cl)cc4)cc3)cc2C1 [Example 246, 4′-Chloro-N-[2-[(dimethylamino)methyl]-1H-inden-6-yl][1,1′-biphenyl]-4-carboxamide]
The melting point of the first is lower: 207 to 209 °C for the first, 218 to 220 °C for the second.

Compared with CN(C)CC1CCc2cc(NC(=O)c3ccc(-c4ccc(C#N)cc4)cc3)ccc2C1 (stereo not shown) [Example 207, 4′-Cyano-N-[6-[(dimethylamino)methyl]-5,6,7,8-tetrahydro-2-naphthalenyl][1,1′-biphenyl]-4-carboxamide], CN(C)CC1CCc2cc(NC(=O)c3ccc(-c4ccccc4)cc3)ccc2C1 (stereo not shown) [compound 24, N-[2-(N,N-Dimethylamino)methyl-6-tetralinyl]-4-biphenylylcarboxamide] is lower in melting point: 183 to 185 °C for the first, 164 to 166 °C for the second.

Compared with CN(C)CCC1=Cc2ccc(NC(=O)c3ccc(-c4ccccc4)cc3)cc2CC1 [Example 208, N-[6-[2-(Dimethylamino)ethyl]-7,8-dihydro-2-naphthalenyl][1,1′-biphenyl]-4-carboxamide], CN(C)CCC1CCc2cc(NC(=O)c3ccc(-c4ccccc4)cc3)ccc2C1 (stereo not shown) [Example 209, N-[6-[2-(Dimethylamino)ethyl]-5,6,7,8-tetrahydro-2-naphthalenyl][1,1′-biphenyl]-4-carboxamide] is lower in melting point: 148 to 150 °C for the first, 112 to 114 °C for the second.

First: CC1=C(CN2CCCC2)CCc2cc(NC(=O)c3ccc(-c4ccc(C)cc4)nc3)ccc21 [Example 228, 6-(4-Methylphenyl)-N-[5-methyl-6-(1-pyrrolidinylmethyl)-7,8-dihydro-2-naphthalenyl]nicotinamide]
Second: CC1=C(CN2CCCC2)CCc2cc(NC(=O)c3ccc(-c4ccccc4)nc3)ccc21 [Example 233, N-[5-Methyl-6-(1-pyrrolidinylmethyl)-7,8-dihydro-2-naphthalenyl]-6-phenylnicotinamide]
The melting point of the first is lower: 175 to 176 °C for the first, 178 to 179 °C for the second.

First: Cc1ccc(C2CCN(C(=O)Nc3ccc4c(c3)CCC(CN3CCN(C)CC3)=C4)CC2)cc1 [Example 241, 4-(4-Methylphenyl)-N-[6-[(4-methyl-1-piperazinyl)methyl]-7,8-dihydro-2-naphthalenyl]-1-piperidinecarboxamide]
Second: COc1ccc(C2CCN(C(=O)Nc3ccc4c(c3)CCC(CN3CCN(C)CC3)=C4)CC2)cc1 [Example 242, 4-(4-Methoxyphenyl)-N-[6-[(4-methyl-1-piperazinyl)methyl]-7,8-dihydro-2-naphthalenyl]-1-piperidinecarboxamide]
The melting point of the first is higher: 214 to 216 °C for the first, 198 to 200 °C for the second.

Compound CN(C)CC1=Cc2ccc(NC(=O)c3ccc(-c4ccc(F)cc4)cc3)cc2C1 [Example 245, N-[2-[(Dimethylamino)methyl]-1H-inden-6-yl]-4′-fluoro[1,1′-biphenyl]-4-carboxamide] has a melting point of 209 to 211 °C.

In the case of COc1ccc(-c2ccc(C(=O)Nc3ccc(CC(=O)NCCN(C)C)cc3)cc2)cc1 [Example 193, N-[4-[2-[[2-(Dimethylamino)ethyl]amino]-2-oxoethyl]phenyl]-4′-methoxy[1,1′-biphenyl]-4-carboxamide], the melting point is reported as 196 to 198 °C (dec.).
With CN(C)CCNC(=O)Cc1ccc(NC(=O)c2ccc3c(c2)S(=O)(=O)c2ccccc2C3=O)cc1 [Example 194, N-[4-[2-[[2-(Dimethylamino)ethyl]amino]-2-oxoethyl]phenyl]-9,10,10-trioxo-9,10-dihydro-10λ^6-thioxanten-3-carboxamide] the melting point was 162 to 163 °C (dec.).
In the case of CN(C)CCNC(=O)Cc1ccc(NC(=O)c2ccc(OCc3ccccc3)cc2)cc1 [Example 195], the melting point is reported as 190 to 192 °C (dec.).
In the case of CN(C)CCNC(=O)Cc1ccc(NC(=O)c2ccc(C(=O)c3ccccc3)cc2)cc1 [Example 196, 4-Benzoyl-N-[4-[2-[[2-(dimethylamino)ethyl]amino]-2-oxoethyl)phenyl]benzamide], the melting point is reported as 173 to 175 °C (dec.).
With Cc1cc(-c2ccncc2)c(C(=O)Nc2ccc(CC(=O)NCCN(C)C)cc2)[nH]1 [Example 197, N-[4-[2-[[2-(Dimethylamino)ethyl]amino]-2-oxoethyl]phenyl]-5-methyl-3-(4-pyridinyl)-1H-pyyrole-2-carboxamide] the melting point was 215 to 218 °C (dec.).
CN(C)CC1CCc2cc(NC(=O)c3ccc(-c4ccccc4)cc3)ccc2C1.Cl (stereo not shown) [Reference Example 25, N-[2-(N,N-Dimethylamino)methyl-6-tetralinyl]-4-biphenylylcarboxamide hydrochloride] gave a melting point greater than 250 °C.
In the case of O=C(NCCN1CCCCC1)c1ccc(NC(=O)c2ccc(-c3ccccc3)cc2)cc1 [compound 22, N-[4-[[2-(Piperidinoethyl)amino]carbonyl]phenyl] 4-biphenylylcarboxamide], the melting point is reported as 247 to 252 °C (dec.).
In the case of O=C(NCCN1CCCC1)c1ccc(NC(=O)c2ccc(-c3ccccc3)cc2)cc1 [compound 23], the melting point is reported as 241 to 245 °C (dec.).

target: SLC-1 expressing CHO cell membrane fractions (MCH receptor) (UniProt Q99705); assay: Determination of antagonist activity using GTPgS binding assay; type: biochemical, human and rat (not specified for the table); conditions: [35S]-GTPγS binding stimulated by MCH, SLC-1 expressing CHO cell membrane 20 μg/ml, 1 hour; read-out: Inhibition Activity (IC50 value: nM)
Procedure: Membrane fraction was prepared by the following method, using the human SLC-1 expressing CHO cell clone 57 obtained in Reference Example 1-10, and the rat SLC-1 expressing CHO cell clone 44 obtained in Reference Example 1-4.
The human and rat SLC-1 expressing CHO cells (1×10^8) were scraped in buffer saline phosphate (pH 7.4) to which 5 mM EDTA (ethylenediaminetetraacetic acid) had been added, and centrifuged. 10 ml of homogenized buffer (10 mM NaHCO3, 5 mM EDTA, pH 7.5) was added to the cell pellets, and they were homogenized using a Polytron homogenizer. […]
After this reaction mixture was allowed to react for 1 hour under stirring, it was filtered under vacuum using a glass filter (GF-C), then the filter was washed 3 times with 300 μl of washing solution (50 mM Tris-HCl buffer solution pH 7.5). […] of liquid scintillator was added to the glass filter, and residual radioactivity was determined using a liquid scintillation counter.
The IC50 value of the compound was calculated from the binding inhibition rate (%), based on the definition that the binding inhibition rate (%)=(radioactivity when compound and MCH were added−radioactivity when DMSO solution was added)/(radioactivity when MCH was added−radioactivity when DMSO solution was added)×100.

Going from COc1ccc(-c2ccc(C(=O)Nc3ccc4c(c3)CCC(CN(C)C)C4)cc2)cc1 (stereo not shown) [Example 1, N-[2-(N,N-Dimethylamino)methyl-6-tetralinyl]-(4′-methoxybiphenyl-4-yl)carboxamide] to CN(C)CC1CCc2cc(NC(=O)c3ccc(-c4ccccc4)cc3)ccc2C1.Cl (stereo not shown) [Reference Example 25, N-[2-(N,N-Dimethylamino)methyl-6-tetralinyl]-4-biphenylylcarboxamide hydrochloride], the IC50 rises from 40 nM to 90 nM (2.2-fold).
